Measurements reported in US20230233500A1, “Gasdermin D (GSDMD) Succination for the Treatment of Inflammatory Disease” (University of Massachusetts, priority 2020, published 2023).
Entries after “also recorded” stand apart in the source; their conditions may differ. Structures can show the parent of a compound that is named as a salt. Where two headings read alike, the source gives them in different places.

What was measured:
GSDMD-N = molecular target: T1, GSDMD-N (Mus musculus, UniProt Q9D8T2); assay: GSDMD-N induced LDH release in HEK293T cells; type: cell-based; details: transfected HEK293T cells
T1 construct: Caspase cleavage of GSDMD liberates an N-terminal pore forming fragment (GSDMD-N, p30); host or cells: HEK293T
T1 sequence (Q9D8T2 1-276 limits assumed): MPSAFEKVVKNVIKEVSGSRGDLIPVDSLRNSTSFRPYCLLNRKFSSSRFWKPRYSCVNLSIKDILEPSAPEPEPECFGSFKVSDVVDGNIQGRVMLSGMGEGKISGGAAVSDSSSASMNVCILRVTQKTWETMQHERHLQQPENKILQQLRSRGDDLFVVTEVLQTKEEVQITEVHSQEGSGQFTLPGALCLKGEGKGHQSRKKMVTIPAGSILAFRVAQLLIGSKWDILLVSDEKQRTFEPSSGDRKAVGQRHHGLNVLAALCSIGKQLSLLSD
From the text: FIGS. 2A-J. Succination of GSDMD inhibits pyroptosis. Immunoblot of GSDMD in streptavidin pulldown from clicked lysates treated as indicated (A-B). Representative MS spectra of 2-monomethyl and 2-dimethylsuccination of GSDMD immunoprecipitated from fumarate treated BMDMs (C-D). Immunoblot of GSDMD in clicked lysates from transfected HEK293T. Cell death of HEK293T transfected as indicated (F-H). Immunoblots of casplp20 and GSDMD in BMDMs (I). Immunoblots of an in vitro binding assay of succinated and non-succinated GSDMD incubated with caspase 1 beads (J). A, B, F, J, […] representative images from three independent experiments. C, D, E, representative mass spec spectra from two independent experiments. H, I pooled data from three independent experiments. ***, P<0.001 (One-way anova). Error bars show means±SEM.
Cells were plated, treated and incubated in phenol red free medium. Following treatment medium was collected and assessed for LDH release using the CytoTox96 non-radioactive cytotoxicity assay (Promega) as per manufacturer's instructions. […]
Primary BMDMs from WT or GsdmD^−/− mice were cultured in 12-well plates (1×10^6 cells per ml; 1 ml) or 10 cm dishes (2×10^6 cells per ml; 10 ml). […] Samples were resolved by SDS-PAGE and stained using simply blue safe stain or transferred to nitrocellulose membranes and analyzed by immunoblot. […]

h.GSDME = molecular target: T2, h.GSDME (Homo sapiens, UniProt O60443); assay: In vitro succination reaction with LC-MS/MS peptide mapping; type: binding
T2 sequence (O60443 1-496): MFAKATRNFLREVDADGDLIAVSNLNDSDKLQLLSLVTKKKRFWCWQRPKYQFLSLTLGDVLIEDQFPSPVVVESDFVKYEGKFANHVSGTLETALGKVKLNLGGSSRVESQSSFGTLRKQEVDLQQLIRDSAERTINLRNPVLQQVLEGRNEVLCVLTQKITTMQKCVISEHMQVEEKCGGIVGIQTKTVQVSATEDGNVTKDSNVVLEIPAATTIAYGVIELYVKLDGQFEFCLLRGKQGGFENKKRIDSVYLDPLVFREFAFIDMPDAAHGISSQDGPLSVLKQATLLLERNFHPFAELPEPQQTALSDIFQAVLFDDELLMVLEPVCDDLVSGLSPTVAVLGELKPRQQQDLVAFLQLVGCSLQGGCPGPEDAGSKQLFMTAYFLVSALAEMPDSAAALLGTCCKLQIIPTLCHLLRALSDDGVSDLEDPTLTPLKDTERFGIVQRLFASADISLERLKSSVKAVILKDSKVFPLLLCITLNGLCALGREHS

[1] = system: GSDMD-deficient BMDMs (GSDME); assay: Cell death in GSDMD-deficient BMDMs; type: cell-based, mouse
From the text: FIGS. 3A-J. Fumarate targets GSDMD and Gasdermin E (GSDME). Kinetic cell death of WT and Gsdmd-BMDMs (A) or WT/GSDMD^−/− THP1 cells (B) treated as indicated. LDH and IL-1β release from WT and Gsdmd^−/− BMDMs (C-D). Immunoblot of GSDMD and GSDME in native and reduced cell lysates from BMDMs (E). Immunoblot of GSDME in streptavidin pulldown from clicked lysates (F). Representative Mass spectra of succinated GSDME (G-H). Immunoblot analysis of GSDMD and GSDME from WT and Gsdmcd^−/− BMDMs (I). A, B representative of three independent experiments. C, D, I pooled data from three independent experiments. E, F, J representative images from 3 independent experiments. ***, P<0.0001, […] (Two-way ANOVA). Error bars show means±SEM.
FIGS. 13A-B. Fumarate inhibits GSDMD and GSDME comparably. (A) Kinetic cell death data of WT (left-panel) and GSDMD−/− (right-panel) primary BMDMs with LPS for 2 hours, DMSO (vehicle) or fumarate (0-50 μM) followed by nigericin (10 μM) for 6 hours. (B) Immunoblot analysis of GSDMD, GSDME and -actin in cell lysates from WT and GSDMD−/− BMDMs treated as in (A).
Cells were plated, treated and incubated in phenol red free medium. Following treatment medium was collected and assessed for LDH release using the CytoTox96 non-radioactive cytotoxicity assay (Promega) as per manufacturer's instructions. Kinetic cell death assays were performed using SytoxOrange and the Biotek Cytation5.

COC(=O)/C=C/C(=O)OC [Fumarate, Dimethyl fumarate]
GSDMD-N induced LDH release (GSDMD-N): inhibited | In vitro cysteine succination sites (h.GSDME): Cys^45 | In vitro cysteine succination sites (h.GSDME; listed as DMF): Cys235; also recorded: Cys371; also recorded: Cys408; also recorded: Cys489; also recorded: Cys45; also recorded: Cys156; also recorded: Cys180 | cell death (GSDMD-independent, GSDME-dependent) ([1]; GSDMD-deficient BMDMs, kinetic): inhibited cell death | GSDME processing / generation of GSDME-N ([1]; GSDMD-deficient cells, immunoblot): blocked | inhibition of GSDMD-driven versus GSDME-driven cell death ([1]; WT and GSDMD-/- BMDMs, fumarate 0-50 μM, nigericin 6 hours): comparably
